Experiment [1] concerns mouse corneal epithelium abrasion. Kind of experiment: In vivo model of corneal wound healing. As to the method: (§1) The mouse corneal epithelium was removed using the AlgerBrush II (The Alger Company, Inc., Lago Vista, Tex.), and corneal abrasions were treated at 0 hours and 16 hours with peptide 95-122 (10^−5 M), or were left untreated in 0.9% sodium chloride (saline vehicle) Wound healing was monitored at 0, 16, and 24 hours using fluorescein staining and a camera-equipped inverted microscope. Data are represented as the percentage of wound closure at 16 hours and 24 hours and are expressed as means±SEM. The data are representative of at least 6 mice per group. *P<0.05 by unpaired t-test as compared to vehicle (0.9% sodium chloride) treated controls.
as §1, with “II,” for “II (The Alger Company, Inc., Lago Vista, Tex.),”, “0” for “0 hours”, “120-146WH (10^−8 M or 10^−6” for “95-122 (10^−5”, “vehicle control).” for “vehicle)”, “group. ***P<0.001,” for “group.”
(A) The epithelium of the mouse cornea was removed using the AlgerBrush II, and corneal abrasions were treated at 0 and 16 hours with HB-EGF (250 ng/ml), rCAP37 (250 ng/ml), or vehicle control (normal saline). Wound closure was monitored at 0, 16, 24, and 48 hours using fluorescein staining and a camera-equipped inverted microscope. Data are represented as the percentage of wound closure and are expressed as mean±SEM. The data are representative of at least 6 mice per group. The percentage of wound closure in response to treatment was compared to vehicle-treated controls by unpaired t-test, **P<0.01, *P<0.05. (B) Representative images of mouse corneal wounds are shown at 0, 16, 24, and 48 hours following treatment with vehicle, HB-EGF, and CAP37. Black dotted lines indicate the wound edge.
In vivo model of corneal wound healing: The in vivo model of wound healing was carried out using a disposable biopsy punch (2 mm, Miltex, York, Pa.) to demarcate the mouse cornea and a 0.5 mm burr using the AlgerBrush II (The Alger Company, Inc., Lago Vista, Tex.) to remove the corneal epithelium.
In vivo model of wound healing: Mice were anesthetized using ketamine (100 mg/kg; Bionichepharma, LLC., St. Lake Forrest, Ill.) and xylazine ([…]; Rompun; Bayer Corp., Shawnee Mission, Kans.), and the right cornea was wounded as follows. A disposable biopsy punch (2 mm, Miltex, York, Pa.) was used to demarcate the mouse cornea. The corneal epithelium was carefully removed within the 2 mm demarcated area with a 0.5 mm burr using the AlgerBrush II (The Alger Company, Inc., Lago Vista, Tex.). The corneal abrasions were treated at 0 and 16 hours with HB-EGF (250 ng/ml), rCAP37 (250 ng/ml), or vehicle control (0.9% sodium chloride, pH 5.5, Baxter, Deerfield, Ill.). Corneal abrasions were visualized using sterile fluorescein sodium ophthalmic strips USP (FLUORETS®, Chauvin Laboratory, Aubenas, France) dampened with sterile PBS. […] The areas of the open wound were quantitated using ImageJ software (US National Institutes of Health), and the results were reported as the percentage of wound closure.

The test system of experiment [2] is full thickness excisional wounds. Description: Swine full thickness excisional dermal wound model. The conditions noted are these: for Mean Wound Healing (%): topical 3 mg/ml, 0.20 ml daily; for percentage of wound healing vs saline control, in words: 3 mg/ml. In kind it is in vivo. As for the experimental part: In this Example, peptide compounds of the presently disclosed inventive concepts were evaluated as to their activity on the dermal wound healing process in a clinically relevant swine full thickness excisional wound model. Three different peptide formulations (Group B, Peptide 95-122 (SEQ ID NO:26); Group C, Peptide 120-146WH (SEQ ID NO:31); and Group D, Peptide 120-146QH-5RMP (SEQ ID NO:33)) were each evaluated at the same concentration (3 mg/ml). Sterile saline served as the control (Group A).
Full thickness excisional wounds were induced on the dorsum of swine (N=3) using a 1.0 cm biopsy punch. Treatments were administered (0.20 ml) to each wound (N=6 wounds per group), and the wounds were dressed with standard occlusive dressing ([…]™, 3M Corporation, St. Paul, Minn.). Treatments were reapplied daily and dressings changed. Clinical wound healing observations and wound area (2 mm) measurements were performed on days 0, 3, 5, 7, 10, and 14 post-wounding. Wound area (2 mm) data were expressed as percentage (%) of wound healing. Animals were terminated on day 14 with wounds harvested and processed for histological evaluation. […] All peptide formulation treatment groups healed faster with greater rate of closure and re-epithelialization over time, as compared to the saline control (Group A).

Results on 3 molecules are retold here after patent US11884710B2, “Peptide compounds and methods of use in wound healing” (priority 2013, dated 2024).

For “GTRCQVAGWGSWHSGGRLSRFPRFVNV (derivative of peptide of CAP37 protein) [Peptide 120-146WH]”, the “amount of corneal wound healing vs vehicle, in words” value in experiment [1] (peptide 10^−8 M or 10^−6 M at 0 and 16 hours, read at 16 and 24 hours) is recorded as “significantly greater”. The “Mean Wound Healing (%)” value is 0.0% in experiment [2] (Day 0); 22.1% in experiment [2] (Day 3); 35.9% in experiment [2] (Day 5); 59.7% in experiment [2] (Day 7); 93.5% in experiment [2] (Day 10); 97.5% in experiment [2] (Day 14). The “percentage of wound healing vs saline control, in words” value in experiment [2] (days 10 and 14 post-wounding) is on record as “significant (p<0.05) increase in the percentage of wound healing”.

“LDREANLTSSVTILPLPLQNATVEAGTR (listed as Homo sapiens) [Peptide 95-122]”: in experiment [1] (peptide 10^−5 M at 0 and 16 hours, read at 16 and 24 hours), the “corneal wound closure, in words” value is listed as “promotes corneal wound healing in vivo”. Also, the “Mean Wound Healing (%)” value in experiment [2] (Day 0) was determined as 0.0%; in experiment [2] (Day 3), 28.9%; in experiment [2] (Day 5) it was 41.5%; in experiment [2] (Day 7) it was 70.8%; in experiment [2] (Day 10), 99.7%; in experiment [2] (Day 14), 100.0%. Also, the “percentage of wound healing vs saline control, in words” value in experiment [2] (days 5, 7, 10, and 14) is reported as “significant (p<0.05) increase in the percentage of wound healing”.

B1: CAP37: cationic antimicrobial protein of Mr 37 kDa; recombinant CAP37 produced in human embryonic kidney (HEK) 293 cells (protein)
chain: IVGGRKARPRQFPFLASIQNQGRHFCGGALIHARFVMTAASCFQSQNPGVSTVVLGAYDLRRRERQSRQTFSISSMSENGYDPQQNLNDLMLLQLDREANLTSSVTILPLPLQNATVEAGTRCQVAGWGSQRSGGRLSRFPRFVNVTVTPEDQCRPNNVCTGVLTRRGGICNGDGGTPLVCEGLAHGVASFSLGPCGRGPDFFTRVALFRDWIDGVLNNPGP
As for B1, in experiment [1] (CAP37 250 ng/ml at 0 and 16 hours, at 16 hours), the “reduction of corneal wound size” value is 71%. In experiment [1] (CAP37 250 ng/ml at 0 and 16 hours, by 24 hours), this molecule had a corneal wound closure of 83%.
